“And” between values parts separate entries of the source, which are not always exact repeats. Equal values may be shown once. Inconclusive results and toxic doses are left out. Rule for the calls: active = survival T/C of 150% or more; inactive = T/C below 125% in these data.
System: P388 leukemia ip, CD2F1 mice, survival T/C
Assay: NCI In Vivo Anticancer Drug Screen. Data for tumor model P388 Leukemia (intraperitoneal) in CD2F1 (CDF1) mice
Settings: endpoint: median survival time, higher = longer survival
How it was run: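 Mice carrying the transplanted tumor received test compound or vehicle. Survival was recorded in each group, and the value is the treated-group measurement divided by that of the vehicle-treated control group.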

[1] = dose: 100.0 mg/kg/injection, schedule: Q01DX001 (ip), vehicle: saline with Tween-80
[2] = dose: 200.0 mg/kg/injection, schedule: Q01DX001 (ip), vehicle: saline with Tween-80
[3] = dose: 400.0 mg/kg/injection, schedule: Q01DX001 (ip), vehicle: saline with Tween-80
[4] = dose: 50.0 mg/kg/injection, schedule: Q01DX005 (ip), vehicle: Klucel (hydroxypropylcellulose) (HPC)
[5] = dose: 100.0 mg/kg/injection, schedule: Q01DX005 (ip), vehicle: Klucel (hydroxypropylcellulose) (HPC)
[6] = dose: 60.0 mg/kg/injection, schedule: Q01DX005 (ip), vehicle: Klucel (hydroxypropylcellulose) (HPC)
[7] = dose: 240.0 mg/kg/injection, schedule: Q01DX005 (ip), vehicle: Klucel (hydroxypropylcellulose) (HPC)
[8] = dose: 100.0 mg/kg/injection, schedule: Q01DX009 (ip), vehicle: saline with Tween-80
[9] = dose: 200.0 mg/kg/injection, schedule: Q01DX009 (ip), vehicle: saline with Tween-80
[10] = dose: 50.0 mg/kg/injection, schedule: Q01DX005 (ip), vehicle: saline with Tween-80
[11] = dose: 100.0 mg/kg/injection, schedule: Q01DX005 (ip), vehicle: saline with Tween-80
[12] = dose: 200.0 mg/kg/injection, schedule: Q01DX005 (ip), vehicle: saline with Tween-80
[13] = dose: 60.0 mg/kg/injection, schedule: Q01DX005 (ip), vehicle: saline with Tween-80
[14] = dose: 120.0 mg/kg/injection, schedule: Q01DX005 (ip), vehicle: saline with Tween-80
[15] = dose: 240.0 mg/kg/injection, schedule: Q01DX005 (ip), vehicle: saline with Tween-80
[16] = dose: 200.0 mg/kg/injection, schedule: Q01DX005 (ip), vehicle: Klucel (hydroxypropylcellulose) (HPC)

Measured: T/C

O=C(C(O)C(O)C(O)CO)n1cnc2c1ncn1c(=O)cc(CI)nc21 (centres undefined)
inactive: [1] 105 % of control | [2] 97 % of control | [3] 111 % of control

COc1ccc(OC)c(/C=C/C2=C(C)C(=O)CC(c3cc(OC)ccc3OC)C2C)c1 (centres undefined)
inactive: dose: 100.0 mg/kg/injection, schedule: Q04DX003 (ip), vehicle: Klucel (hydroxypropylcellulose) (HPC) 90 % of control | dose: 200.0 mg/kg/injection, schedule: Q04DX003 (ip), vehicle: Klucel (hydroxypropylcellulose) (HPC) 88 % of control

COc1cccc(/C=N/Nc2cc(C)nc3cc4c(cc23)OCO4)c1
inactive: dose: 6.25 mg/kg/injection, schedule: Q01DX005 (ip), vehicle: Klucel (hydroxypropylcellulose) (HPC) 104 % of control | dose: 12.5 mg/kg/injection, schedule: Q01DX005 (ip), vehicle: Klucel (hydroxypropylcellulose) (HPC) 97 % of control | dose: 25.0 mg/kg/injection, schedule: Q01DX005 (ip), vehicle: Klucel (hydroxypropylcellulose) (HPC) 100 % of control and 87 % of control | [4] 100 % of control and 102 % of control and 96 % of control | [5] 95 % of control

CC(C)(C)N1COC2CCCCC21 (centres undefined)
inactive: dose: 15.0 mg/kg/injection, schedule: Q01DX005 (ip), vehicle: Klucel (hydroxypropylcellulose) (HPC) 106 % of control | dose: 30.0 mg/kg/injection, schedule: Q01DX005 (ip), vehicle: Klucel (hydroxypropylcellulose) (HPC) 102 % of control | [6] 106 % of control and 117 % of control | [7] 106 % of control

c1ccc(CSc2ncnc3nc[nH]c23)cc1
inactive: dose: 12.5 mg/kg/injection, schedule: Q01DX010 (ip), vehicle: saline 100 % of control | dose: 25.0 mg/kg/injection, schedule: Q01DX010 (ip), vehicle: saline 100 % of control | dose: 50.0 mg/kg/injection, schedule: Q01DX010 (ip), vehicle: saline 90 % of control | dose: 100.0 mg/kg/injection, schedule: Q01DX010 (ip), vehicle: saline 90 % of control

C[As](C)SC1CCC2(C)C(=CCC3C4CCC(=O)C4(C)CCC32)C1 (centres undefined)
inactive: dose: 12.5 mg/kg/injection, schedule: Q01DX009 (ip), vehicle: distilled water + Tween-80 92 % of control | dose: 25.0 mg/kg/injection, schedule: Q01DX009 (ip), vehicle: distilled water + Tween-80 89 % of control and 96 % of control | dose: 50.0 mg/kg/injection, schedule: Q01DX009 (ip), vehicle: distilled water + Tween-80 107 % of control and 97 % of control | dose: 100.0 mg/kg/injection, schedule: Q01DX009 (ip), vehicle: distilled water + Tween-80 119 % of control and 121 % of control | dose: 200.0 mg/kg/injection, schedule: Q01DX009 (ip), vehicle: distilled water + Tween-80 107 % of control and 90 % of control

O=C(NCCNC(=O)Nc1ccccc1S(=O)(=O)F)Nc1ccccc1S(=O)(=O)F
inactive: dose: 50.0 mg/kg/injection, schedule: Q01DX009 (ip), vehicle: saline with Tween-80 96 % of control | [8] 97 % of control | [9] 93 % of control

C/C(N=NC(=S)N1CCCC(C)C1)=C1\C=CC=CN1O (centres undefined)
inactive: [10] 101 % of control | [11] 98 % of control | [12] 112 % of control

N#Cc1c(=O)[nH]c(=O)n2c1[nH]c1ccccc12
inactive: dose: 15.0 mg/kg/injection, schedule: Q01DX005 (ip), vehicle: saline with Tween-80 102 % of control | dose: 30.0 mg/kg/injection, schedule: Q01DX005 (ip), vehicle: saline with Tween-80 104 % of control | [13] 105 % of control and 88 % of control

CN(C)CC[CH2][Sn]([CH3])([c]1ccccc1)[c]1ccccc1
inactive: dose: 6.25 mg/kg/injection, schedule: Q01DX009 (ip), vehicle: suspension in saline 88 % of control | dose: 12.5 mg/kg/injection, schedule: Q01DX009 (ip), vehicle: suspension in saline 101 % of control | dose: 25.0 mg/kg/injection, schedule: Q01DX009 (ip), vehicle: suspension in saline 103 % of control

COc1ccc(Cc2coc3cc(OC)cc(OC)c3c2=O)cc1
inactive: [13] 98 % of control | [14] 97 % of control | [15] 94 % of control

O=[N+]([O-])c1cccc(/C=C/C=C/c2cccc(S(=O)(=O)F)c2)c1
inactive: [8] 90 % of control | [9] 86 % of control | dose: 400.0 mg/kg/injection, schedule: Q01DX009 (ip), vehicle: saline with Tween-80 86 % of control

CCOC(=O)Nc1c(CC(C)O)n[nH]c1C (centres undefined)
inactive: [10] 110 % of control | [11] 100 % of control | [12] 96 % of control

Oc1[nH]c2ccccc2c1N=NC1=NCCN1
inactive: dose: 60.0 mg/kg/injection, schedule: Q01DX005 (ip), vehicle: saline 101 % of control | dose: 120.0 mg/kg/injection, schedule: Q01DX005 (ip), vehicle: saline 104 % of control | dose: 240.0 mg/kg/injection, schedule: Q01DX005 (ip), vehicle: saline 87 % of control

COC(=O)C(=O)c1c(C(=O)OC)nc2[nH]n(-c3ccccc3)c(=O)c2c1Cc1ccccc1
inactive: [13] 98 % of control | [14] 100 % of control | [15] 91 % of control

CCOC(=O)/C=C(\C)NC1CC(=O)NC1=O (centres undefined)
inactive: dose: 50.0 mg/kg/injection, schedule: Q01DX009 (ip), vehicle: distilled water + alcohol 104 % of control | dose: 100.0 mg/kg/injection, schedule: Q01DX009 (ip), vehicle: distilled water + alcohol 108 % of control

OC(C[n+]1ccccc1)c1ccccc1 (centres undefined)
inactive: dose: 6.25 mg/kg/injection, schedule: Q01DX009 (ip), vehicle: saline 105 % of control | dose: 12.5 mg/kg/injection, schedule: Q01DX009 (ip), vehicle: saline 100 % of control | dose: 25.0 mg/kg/injection, schedule: Q01DX009 (ip), vehicle: saline 109 % of control | dose: 50.0 mg/kg/injection, schedule: Q01DX009 (ip), vehicle: saline 100 % of control

C[C@@H]1C(=O)OCC2=C3C[C@@H](CC[C@@]3(C)C=CC2=O)[C@H](C)C(=O)OCC2=C3C[C@H]1CC[C@@]3(C)C=CC2=O
inactive: [4] 100 % of control | [5] 101 % of control | [16] 95 % of control

COC(=O)c1cccc(OCC(=O)Nc2ccccc2)c1
inactive: [1] 100 % of control | [2] 100 % of control | [3] 90 % of control

O=[N+]([O-])c1ccccc1/C(=N\O)c1cccs1
inactive: dose: 100.0 mg/kg/injection, schedule: Q04DX002 (ip), vehicle: Klucel (hydroxypropylcellulose) (HPC) 107 % of control | dose: 200.0 mg/kg/injection, schedule: Q04DX002 (ip), vehicle: Klucel (hydroxypropylcellulose) (HPC) 100 % of control

O=c1c2ccc(S(=O)(=O)c3ccc4c(=O)n5c6ccccc6nc5c5cccc3c45)c3cccc(c32)c2nc3ccccc3n12
inactive: [6] 86 % of control | dose: 120.0 mg/kg/injection, schedule: Q01DX005 (ip), vehicle: Klucel (hydroxypropylcellulose) (HPC) 88 % of control | [7] 99 % of control

CC(Nc1cnccn1)Nc1cnccn1
inactive: [4] 102 % of control | [5] 105 % of control | [16] 104 % of control

Cn1c2ccccc2c2[nH]c3ccccc3c(=O)c21
inactive: [4] 108 % of control and 97 % of control | [5] 95 % of control | [16] 90 % of control and 96 % of control

C/C=C(\C)c1cc(=O)c2c(C)cc3c(c2o1)C(=O)c1c(OC)cccc1C3=O
inactive: [1] 96 % of control | [2] 93 % of control | [3] 89 % of control

CCN1C=C/C(=C\C=C/c2cc[n+](CC)c3ccccc23)c2ccccc21
inactive: dose: 0.15 mg/kg/injection, schedule: Q04DX003 (ip), vehicle: saline 118 % of control | dose: 0.22 mg/kg/injection, schedule: Q04DX003 (ip), vehicle: saline 118 % of control | dose: 0.33 mg/kg/injection, schedule: Q04DX003 (ip), vehicle: saline 122 % of control

CCC(=O)NC1=C(Cl)C(=O)C(Cl)=C(Cl)C1=O
inactive: dose: 3.13 mg/kg/injection, schedule: Q01DX009 (ip), vehicle: saline with Tween-80 111 % of control | dose: 6.25 mg/kg/injection, schedule: Q01DX009 (ip), vehicle: saline with Tween-80 103 % of control

CCCCCCN1CCS(=O)(=O)CC1
inactive: dose: 50.0 mg/kg/injection, schedule: Q01DX009 (ip), vehicle: Klucel (hydroxypropylcellulose) (HPC) 91 % of control | dose: 100.0 mg/kg/injection, schedule: Q01DX009 (ip), vehicle: Klucel (hydroxypropylcellulose) (HPC) 94 % of control | dose: 200.0 mg/kg/injection, schedule: Q01DX009 (ip), vehicle: Klucel (hydroxypropylcellulose) (HPC) 90 % of control
